Data published in the METLIN SMRT retention time set (Domingo-Almenara et al. 2019).

Assay: gradient 5% acetonitrile 3 min, to 50% in 2 min, to 85% in 15 min, held 3 min, 100 µL/min
Conditions: column: Zorbax Extend-C18 2.1 x 50 mm; eluents: water / acetonitrile, 0.1% formic acid
Method in brief: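 Mixtures of ~100 pure standards were chromatographed on a Zorbax Extend-C18 column (2.1 × 50 mm, 1.8 μm) at 100 μL/min using water and acetonitrile, each with 0.1% formic acid. Detection used a quadrupole time-of-flight mass spectrometer in positive and negative ionization mode, and data collection spanned 3 months. Retention time was obtained from adduct peaks picked computationally and each checked manually.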

Row | SMILES | RP-LC retention time [s]
1 | Cc1cc(C)n(-c2cc(Nc3ccccc3)ncn2)n1 | 1010
2 | COC(=O)[C@H](CCSC)NC(=O)c1ccc(-n2cnnn2)cc1 | 693
3 | CCOc1ccc(S(=O)(=O)NCC2CCN(C(=O)c3cccn(C)c3=O)CC2)cc1C | 657
4 | COc1ccc(OCc2nn3c(-c4ccc(OC)c(OC)c4)nnc3s2)cc1 | 867
5 | COC(=O)C1=CN(c2ccc(OC)c(Cl)c2)c2ccccc2S1(=O)=O | 856
6 | COc1ccc(F)cc1S(=O)(=O)N1CCC2(CC1)NCCCN=C2NC1CCCC1 | 607
7 | CCn1cc(S(=O)(=O)Nc2ccc(C)c(F)c2)c2cccnc21 | 799
8 | COc1ccccc1NC(=O)Nc1cc(C(C)C)ccc1C | 1160
9 | CC1CCN(C(=O)CCC(=O)N2CCCN(c3nc4cccnc4s3)CC2)CC1 | 698
10 | CCN1CCCn2cc(S(=O)(=O)NCc3ccc(Cl)cc3)cc2C1=O | 767
11 | CCCC[C@@H](C)/C=C(C)/C=C(\C)C(=O)NC1=C[C@@](O)(/C=C/C=C/C=C/C(=O)NC2=C(O)CCC2=O)[C@@H]2OC2C1=O (stereo partly specified) | 1250
12 | Cc1ccc(-c2csc(Cc3nc(-c4cccc(F)c4)no3)n2)cc1C | 1360
13 | c1cc(-c2nc3c(c(N4CCSCC4)n2)CCC3)ccn1 | 675
14 | O=C1N(CN2CCN(c3ccccn3)CC2)c2ccccc2C12OCCCO2 | 572
15 | COc1ccc(NC(=O)C2CCN(S(=O)(=O)c3cc(-c4noc(C)n4)cs3)CC2)cc1OC | 814
16 | CCOc1ccc(-c2ccc(=O)n(Cc3nc(-c4cccc(C)c4)no3)n2)cc1 | 1120
17 | CC(=O)Nc1cccc(Oc2nc(C)nc3sc4c(c23)CCCC4)c1 | 913
18 | O=C1CC(NS(=O)(=O)c2ccc(Br)s2)CN1 (stereo unspecified) | 630
19 | COc1cc(-c2nnc(-c3ccc(C)c(S(=O)(=O)N4CCC(C)CC4)c3)o2)cc(OC)c1OC | 1170
20 | COc1ccc(-c2csc(Nc3cccnc3)n2)cc1OC | 620
21 | O=c1c(=O)n(-c2ccccc2)ccn1Cc1cccc(C(F)(F)F)c1 | 770

Next, values leading:

Row | RP-LC retention time [s] | SMILES
22 | 598 | O=C(c1n[nH]c(=O)c2ccccc12)N1C[C@H]2C[C@H](C1)[C@H]1CCCC(=O)N1C2
23 | 1120 | Cc1cc(C)n2c(Nc3ccccc3)c(-c3ccc(Br)cc3O)nc2n1
24 | 841 | CC1(C)CC(=O)c2c(nc(N3CCN(c4ccccn4)CC3)nc2Nc2ccccc2)C1
25 | 927 | CCn1c(=O)c(N2CCN(C(=O)Nc3cc(C)cc(C)c3)CC2)nc2ccccc21
26 | 742 | COc1ccccc1N1CCN(c2ncc(C(=O)Nc3ccccc3)c(N)n2)CC1
27 | 966 | CCc1ccc(N2C(=O)N(CC(=O)N3CCOc4ccc(C)cc43)C3CS(=O)(=O)CC32)cc1 (stereo unspecified)
28 | 807 | Cc1ccc(CNC(=O)C2CCCN(c3ncnc4c3oc3ccccc34)C2)cc1 (stereo unspecified)
29 | 839 | Cc1ccc2[nH]cc(CCNC(=O)Cn3c4ccccc4c4cnn(C)c(=O)c43)c2c1
30 | 708 | O=C(Nc1ccc(Cn2cncn2)cc1)c1ccc(Br)o1
31 | 810 | CCCS(=O)(=O)NCc1ccc2c(c1)CCN2C(=O)c1ccccc1
32 | 617 | O=C(NCCCOc1cccc2cccnc12)c1cc(-c2ccccc2)on1
33 | 824 | Cc1ccc(C)c(NC(=O)C2CCN(S(=O)(=O)c3ccc4c(c3)NC(=O)C(C)O4)CC2)c1 (stereo unspecified)
34 | 665 | Cc1cccc(-c2nc3ccccn3c2NC(=O)Nc2ccccc2)c1
35 | 1060 | Cc1ccc(S(=O)(=O)N2CCCC(C(=O)Nc3cc(-c4nc(C)cs4)sc3C)C2)cc1 (stereo unspecified)
36 | 907 | CCOc1ccc(C(C)NC(=O)C2c3ccccc3CCN2C(=O)C2CC2)cc1 (stereo unspecified)
